Key:
[1] = test system: proteasome activity of worm PDS; assay: Proteasome activity of worm PDS with substrate Z-GGL-AMC; format: biochemical, Caenorhabditis elegans; conditions: 10 μM; wild-type worm (N2) PDS 0.5 μg/μl
Protocol: The synthetic proteasome substrate Z-GGL-AMC was used according to the manufacturer's (Calbiochem) instructions to follow proteasome activity of wild-type worms (strain N2) PDS (0.5 μg/μl).

[2] = test system: PC12 cells
Protocol: Viability of rat adrenal pheochromocytoma (PC12) cells were discerned by the MTT assay (Bucciantini et al., Nature 416: 507, 2002), and normalized to cell survival when incubated in the absence of Aβ1-40.
Using the disaggregation assay and conditions as in B, and 72 h incubation, Aβ1-40 disaggregation samples (500 nM) were added to PC12 cell culture medium for 3 days. Cell viability was assayed by MTT metabolic activity.

Molecule | proteasome activity of worm PDS [1] | toxicity on PC12 cells [2]
CC[C@H](C)[C@H](NC(=O)[C@H]([C@@H](C)CC)N(C)C(C)=O)C(=O)N[C@H](C(=O)N[C@@H](CC(C)C)C(=O)[C@@]1(C)CO1)[C@@H](C)O [Epoxomicin] | effectively inhibits proteasome activity | –
Monomeric Aβ1-40 peptide: Aβ1-40 peptide purchased from Synpep | – | did not exhibit toxicity
